# Results: PubChem BioAssay (NCI)
#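 Five concentrations, 48 hours, 96-well plates. GI50 = concentration required for 50% inhibition of growth. TGI is the concentration that stops growth completely.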 Where a SMILES comes first, the peptide text is derived from it. [ ]: non-standard residue; d: D form. The star is where a group is joined. ξ: configuration not given here. dIva = CC[C@@](C)(N)C(=O)O; Aib = CC(C)(N)C(=O)O; ξP = O=C(O)C1CCCN1; βAla = NCCC(=O)O; X5 = OCN*
# Columns and labels:
# Test in all cases: growth of human tumour cells (NCI), 48 h
# [1] = tested on: 786-0 renal
# [2] = tested on: A498 renal
# [3] = tested on: A549 NSCLC
# [4] = tested on: ACHN renal
# [5] = tested on: BT-549 breast
# [6] = tested on: CAKI-1 renal
# [7] = tested on: CCRF-CEM leukemia
# [8] = tested on: COLO 205 colon
# [9] = tested on: DU-145 prostate
# [10] = tested on: EKVX NSCLC
# [11] = tested on: HCC-2998 colon
# [12] = tested on: HCT-116 colon
# [13] = tested on: HCT-15 colon
# [14] = tested on: HL-60(TB) leukemia
# [15] = tested on: HOP-62 NSCLC
# [16] = tested on: HS 578T breast
# [17] = tested on: HT29 colon
# [18] = tested on: K-562 leukemia
# [19] = tested on: KM12 colon
# [20] = tested on: LOX IMVI melanoma
# [21] = tested on: M14 melanoma
# [22] = tested on: MALME-3M melanoma
# [23] = tested on: MCF7 breast
# [24] = tested on: MDA-MB-435
# [25] = tested on: MOLT-4 leukemia
# [26] = tested on: NCI-H226 lung
# [27] = tested on: NCI-H23 lung
# [28] = tested on: NCI-H460 lung
# [29] = tested on: NCI-H522 lung
# [30] = tested on: NCI/ADR-RES ovarian
# [31] = tested on: OVCAR-3 ovarian
# [32] = tested on: OVCAR-4 ovarian
# [33] = tested on: OVCAR-5 ovarian
# [34] = tested on: OVCAR-8 ovarian
# [35] = tested on: PC-3 prostate
# [36] = tested on: RXF 393 renal
# [37] = tested on: SF-268 CNS
# [38] = tested on: SF-295 CNS
# [39] = tested on: SF-539 CNS
# [40] = tested on: SK-MEL-2 melanoma
# [41] = tested on: SK-MEL-28 melanoma
# [42] = tested on: SK-MEL-5 melanoma
# [43] = tested on: SK-OV-3 ovarian
# [44] = tested on: SN12C renal
# [45] = tested on: SNB-19 CNS
# [46] = tested on: SNB-75 CNS
# [47] = tested on: SR leukemia
# [48] = tested on: SW-620 colon
# [49] = tested on: T-47D breast
# [50] = tested on: TK-10 renal
# [51] = tested on: U251 CNS
# [52] = tested on: UACC-257 melanoma
# [53] = tested on: UACC-62 melanoma
# [54] = tested on: UO-31 renal
smiles,measurement,setting,value
CC[C@@](C)(NC(=O)[C@H](C)NC(=O)CCNC(=O)C(C)(C)NC(=O)[C@H](C)NC(=O)[C@@H]1CCCN1C(=O)[C@@](C)(CC)NC(=O)[C@H](Cc1ccccc1)NC(=O)C1CCCN1C(=O)C(C)(C)NC(=O)C1CCCN1C(=O)C(C)(C)NC(C)=O)C(=O)NCCC(=O)N[C@@H](CC(C)C)C(=O)NC(C)(C)C(=O)NCCC(=O)N[C@@H](CC(C)C)C(=O)NC(C)(C)C(=O)NC(C)(C)C(=O)N[C@@H](CC(C)C)C(=O)NCCC(=O)NCO (stereo partly drawn) (Ac-[Aib][ξP][Aib][ξP]F[dIva]PA[Aib][βAla]A[dIva][βAla]L[Aib][βAla]L[Aib][Aib]L[βAla]-X5),GI50,[1],203 nM
same,TGI,[1],414 nM
same,GI50,[2],190 nM
same,TGI,[2],412 nM
same,GI50,[3],133 nM
same,TGI,[3],351 nM
same,GI50,[4],199 nM
same,TGI,[4],428 nM
same,GI50,[5],69.9 nM
same,TGI,[5],266 nM
same,GI50,[6],231 nM
same,TGI,[6],448 nM
same,GI50,[7],224 nM
same,TGI,[7],577 nM
same,GI50,[8],68.1 nM
same,TGI,[8],248 nM
same,GI50,[9],125 nM
same,TGI,[9],338 nM
same,GI50,[10],66.1 nM
same,TGI,[10],275 nM
same,GI50,[11],145 nM
same,TGI,[11],351 nM
same,GI50,[12],218 nM
same,TGI,[12],431 nM
same,GI50,[13],229 nM
same,TGI,[13],446 nM
same,GI50,[14],318 nM
same,TGI,[14],650 nM
same,GI50,[15],180 nM
same,TGI,[15],383 nM
same,GI50,[16],248 nM
same,TGI,[16],642 nM
same,GI50,[17],197 nM
same,TGI,[17],414 nM
same,GI50,[18],79.1 nM
same,TGI,[18],332 nM
same,GI50,[19],168 nM
same,TGI,[19],368 nM
same,GI50,[20],208 nM
same,TGI,[20],428 nM
same,GI50,[21],188 nM
same,TGI,[21],391 nM
same,GI50,[22],59.5 nM
same,TGI,[22],256 nM
same,GI50,[23],65.1 nM
same,TGI,[23],286 nM
same,GI50,[24],142 nM
same,TGI,[24],357 nM
same,GI50,[25],306 nM
same,TGI,[25],645 nM
same,GI50,[26],101 nM
same,TGI,[26],342 nM
same,GI50,[27],88 nM
same,TGI,[27],320 nM
same,GI50,[28],144 nM
same,TGI,[28],381 nM
same,GI50,[29],86.8 nM
same,TGI,[29],304 nM
same,GI50,[30],238 nM
same,TGI,[30],488 nM
same,GI50,[31],144 nM
same,TGI,[31],353 nM
same,GI50,[32],132 nM
same,TGI,[32],346 nM
same,GI50,[33],197 nM
same,TGI,[33],422 nM
same,GI50,[34],119 nM
same,TGI,[34],359 nM
same,GI50,[35],76.5 nM
same,TGI,[35],264 nM
same,GI50,[36],221 nM
same,TGI,[36],436 nM
same,GI50,[37],143 nM
same,TGI,[37],368 nM
same,GI50,[38],53.9 nM
same,TGI,[38],213 nM
same,GI50,[39],131 nM
same,TGI,[39],354 nM
same,GI50,[40],202 nM
same,TGI,[40],427 nM
same,GI50,[41],187 nM
same,TGI,[41],431 nM
same,GI50,[42],99.1 nM
same,TGI,[42],302 nM
same,GI50,[43],72.5 nM
same,TGI,[43],266 nM
same,GI50,[44],119 nM
same,TGI,[44],373 nM
same,GI50,[45],95.2 nM
same,TGI,[45],304 nM
same,GI50,[46],60.8 nM
same,TGI,[46],307 nM
same,GI50,[47],272 nM
same,TGI,[47],646 nM
same,GI50,[48],149 nM
same,TGI,[48],403 nM
same,GI50,[49],73.9 nM
same,TGI,[49],302 nM
same,GI50,[50],153 nM
same,TGI,[50],353 nM
same,GI50,[51],81.4 nM
same,TGI,[51],268 nM
same,GI50,[52],57.9 nM
same,TGI,[52],210 nM
same,GI50,[53],258 nM
same,TGI,[53],503 nM
same,GI50,[54],179 nM
same,TGI,[54],391 nM
